Data taken from patent US20120295965A1, “FUSED THIOPHENES AS DUAL INHIBITORS OF EGFR/VEGFR AND THEIR USE IN THE TREATMENT OF CANCER” (priority 2009, published 2012).

Tests used:
[1] = tested on: EGF response in A431 cells; test: Epic label-free DMR biosensor cellular assay, EGF marker in A431; format: cell-based, human
Description: (§1) All cell lines were obtained from American Type Cell Culture (Manassas, Va.). The cell culture medium was as follows: (1) Dulbecco's modified Eagle's medium (DMEM) supplemented with 10% fetal bovine serum (FBS), 4.5 g/liter glucose, 2 mM glutamine, and antibiotics for human epidermoid carcinoma A431; and (2) McCoy's 5a Medium Modified supplemented with 10% FBS, 4.5 g/liter glucose, 2 mM glutamine, and antibiotics for human colorectal adenocarcinoma HT29.
(§2) Cells were typically grown using ˜1 to 2×10^4 cells per well at passage 3 to 15 suspended in 50 μl of the corresponding culture medium in the biosensor microplate, and were cultured at 37° C. under air/5% CO2 for ˜1 day. Except for A431 which underwent one day culture followed by one starvation in serum free medium, all other cells were directly assayed without starvation. The confluency for all cells at the time of assays was ˜95% to 100%.
(§3) Epic® beta version wavelength interrogation system (Corning Inc., Corning, N.Y.) was used for whole cell sensing. This system consists of a temperature-control unit, an optical detection unit, and an on-board liquid handling unit with robotics. The detection unit is centered on integrated fiber optics, and enables kinetic measures of cellular responses with a time interval of ˜15 sec.
(§4) To study the influence of molecules on a marker-induced response, a second stimulation with the marker at a fixed dose (typically at EC80 or EC100) was applied. The resonant wavelengths of all biosensors in the microplate were normalized again to establish a second baseline, right before the second stimulation. The two stimulations were usually separated by ˜1 hr.
(§5) All studies were carried out at a controlled temperature (28° C.). At least two independent sets of experiments, each with at least three replicates, were performed.
(§6) The DMR modulation index were generated against 4 markers across two distinct cell lines—the EGFR agonist EGF in A431 (EGF at 32 nM), and the EGFR agonist EGF in HT29 (EGF at 2 nM), the hERG activator mallotoxin (MTX) in HT29 (MTX at 16 micromlar), and the NTS1/NTS3 agonist neurotensin (NT) in HT29 (NT at 2 nM). The EGF responses in A431 cells include the early P-DMR event (˜5 min after EGF stimulation) and the subsequent N-DMR event (˜30 min after EGF stimulation). The EGF responses in HT29 include the early P-DMR event (˜5 min after EGF stimulation) and the late P-DMR event (˜50 min after EGF stimulation), whereas the mallotoxin response in HT29 is the P-DMR response 50 min after MTX stimulation, and the NT response in HT29 is the P-DMR 50 min after NT stimulation. In all cases, the amplitudes of respective DMR events were used as the basis to calculate the percentages of modulation by each inhibitor.

[2] = tested on: EGF response in HT29; test: Epic label-free DMR biosensor cellular assay, EGF marker in HT29; format: cell-based, human
Description: as §1, §2, §3, §4, §5, §6

[3] = tested on: mallotoxin response in HT29; test: Epic label-free DMR biosensor cellular assay, hERG activator mallotoxin marker in HT29
Description: HT29 expresses VEGFR1 (Flt1 receptor), but not other VEGF receptors.
as §1
as §2, with “starvation.” for “starvation. The confluency for all cells at the time of assays was ˜95% to 100%.”
as §3
For biosensor cellular assays, molecule solutions were made by diluting the stored concentrated solutions with the HBSS (1× Hanks balanced salt solution, plus 20 mM Hepes, pH 7.1), and transferred into a 384well polypropylene molecule storage plate to prepare a molecule source plate. Both molecule and marker source plates were made separately when a two-step assay was performed. In parallel, the cells were washed twice with the HBSS and maintained in 30 μl of the HBSS to prepare a cell assay plate. Both the cell assay plate and the molecule and marker source plate(s) were then incubated in the hotel of the reader system. After ˜1 hr of incubation the baseline wavelengths of all biosensors in the cell assay microplate were recorded and normalized to zero. Afterwards, a 2 to 10 minute continuous recording was carried out to establish a baseline, and to ensure that the cells reached a steady state. Cellular responses were then triggered by pipetting 10 μl of the marker solutions into the cell assay plate using the on-board liquid handler.
as §4, §5, §6

[4] = tested on: NT response in HT29; test: Epic label-free DMR biosensor cellular assay, neurotensin marker in HT29; format: cell-based, human
Description: The NTS1 natural agonist neurotensin is known to activate the endogenous NTS1/NTS3 heterodimers in HT29 cells. […] Thus, neurotensin was chosen as an indirect marker for identifying potential EGFR inhibitors.
as §1, §2, §3, §4, §5, §6

[5] = target: T1, VEGFR1 (FLT1) (Homo sapiens, UniProt P17948); test: LanthaScreen TR-FRET kinase assay, VEGFR1 (FLT1); format: biochemical
T1 construct: purchased Invitrogen
T1 sequence (P17948 27-1338): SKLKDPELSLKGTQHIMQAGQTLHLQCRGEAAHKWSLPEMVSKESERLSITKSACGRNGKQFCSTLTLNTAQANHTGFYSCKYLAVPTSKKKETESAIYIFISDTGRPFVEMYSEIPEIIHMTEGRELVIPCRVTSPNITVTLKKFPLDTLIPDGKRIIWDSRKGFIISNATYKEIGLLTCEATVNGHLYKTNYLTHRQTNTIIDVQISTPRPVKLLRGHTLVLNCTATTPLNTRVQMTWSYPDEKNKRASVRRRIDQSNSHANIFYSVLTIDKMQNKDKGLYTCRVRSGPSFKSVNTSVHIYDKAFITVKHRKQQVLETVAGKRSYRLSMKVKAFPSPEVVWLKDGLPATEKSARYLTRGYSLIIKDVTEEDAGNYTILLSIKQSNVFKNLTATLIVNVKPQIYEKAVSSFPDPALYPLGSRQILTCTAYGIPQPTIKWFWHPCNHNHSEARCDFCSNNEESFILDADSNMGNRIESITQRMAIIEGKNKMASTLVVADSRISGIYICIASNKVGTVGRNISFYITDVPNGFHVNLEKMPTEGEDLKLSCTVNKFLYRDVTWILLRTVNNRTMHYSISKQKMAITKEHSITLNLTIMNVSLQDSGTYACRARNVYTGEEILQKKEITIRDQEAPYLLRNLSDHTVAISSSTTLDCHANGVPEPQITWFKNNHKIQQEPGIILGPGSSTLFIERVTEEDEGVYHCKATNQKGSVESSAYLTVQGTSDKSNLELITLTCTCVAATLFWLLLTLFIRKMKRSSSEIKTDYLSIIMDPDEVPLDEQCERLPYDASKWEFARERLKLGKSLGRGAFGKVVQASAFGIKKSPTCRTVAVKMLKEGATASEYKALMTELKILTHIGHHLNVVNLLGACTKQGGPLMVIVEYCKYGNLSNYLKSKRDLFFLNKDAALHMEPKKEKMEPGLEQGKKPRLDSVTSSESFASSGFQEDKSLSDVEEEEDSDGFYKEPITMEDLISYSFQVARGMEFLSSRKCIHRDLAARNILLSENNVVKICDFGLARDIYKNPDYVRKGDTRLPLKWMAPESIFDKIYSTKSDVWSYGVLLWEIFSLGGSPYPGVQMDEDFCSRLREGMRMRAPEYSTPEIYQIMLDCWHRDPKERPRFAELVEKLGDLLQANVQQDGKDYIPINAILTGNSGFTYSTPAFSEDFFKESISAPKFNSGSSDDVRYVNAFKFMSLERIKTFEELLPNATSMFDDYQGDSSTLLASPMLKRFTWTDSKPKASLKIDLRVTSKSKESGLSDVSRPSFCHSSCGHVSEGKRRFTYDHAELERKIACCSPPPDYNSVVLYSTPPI
Description: (§7) LanthaScreen TR-FRET kinase assay reagents and the recombinant EGFR, VEGFR1 (FLT1), VEGFR2 (KDR) were purchased from Invitrogen. Known kinase inhibitors were used as positive controls.
(§8) Each EGFR reaction contains 51 ng/ml kinase, 2.4 μM ATP and 0.2 μM substrate. […] Each VEGFR2 (KDR) reaction contains 4 ng/ml kinase, 13 μM ATP and 0.2 μM substrate. Kinase reactions are allowed to proceed for 1 hour at room temperature before a 10 μl preparation of EDTA (20 mM) and Tb-labeled antibody (4 nM) in TR-FRET dilution buffer are added. The final concentration of antibody in the assay well is 2 nM, and the final concentration of EDTA is 10 mM. The plate is allowed to incubate at room temperature for at least 30 minutes before being read on a Tecan SafireII plate reader configured for LanthaScreen™ TR-FRET (Excitation at 340 nm, emission at 495 nm and 520 nm). The final readout is the emission ratio 520 nm/495 nm. Each data point is the average of 4 replicates.

[6] = target: T2, VEGFR2 (KDR) (Homo sapiens, UniProt P35968); test: LanthaScreen TR-FRET kinase assay, VEGFR2 (KDR); format: biochemical; settings: for inhibition of FRET signal of VEGFR2 tyrosine kinase: compounds at 25 micromolar, FIG. 3
T2 construct: purchased Invitrogen
T2 sequence (P35968 20-1356): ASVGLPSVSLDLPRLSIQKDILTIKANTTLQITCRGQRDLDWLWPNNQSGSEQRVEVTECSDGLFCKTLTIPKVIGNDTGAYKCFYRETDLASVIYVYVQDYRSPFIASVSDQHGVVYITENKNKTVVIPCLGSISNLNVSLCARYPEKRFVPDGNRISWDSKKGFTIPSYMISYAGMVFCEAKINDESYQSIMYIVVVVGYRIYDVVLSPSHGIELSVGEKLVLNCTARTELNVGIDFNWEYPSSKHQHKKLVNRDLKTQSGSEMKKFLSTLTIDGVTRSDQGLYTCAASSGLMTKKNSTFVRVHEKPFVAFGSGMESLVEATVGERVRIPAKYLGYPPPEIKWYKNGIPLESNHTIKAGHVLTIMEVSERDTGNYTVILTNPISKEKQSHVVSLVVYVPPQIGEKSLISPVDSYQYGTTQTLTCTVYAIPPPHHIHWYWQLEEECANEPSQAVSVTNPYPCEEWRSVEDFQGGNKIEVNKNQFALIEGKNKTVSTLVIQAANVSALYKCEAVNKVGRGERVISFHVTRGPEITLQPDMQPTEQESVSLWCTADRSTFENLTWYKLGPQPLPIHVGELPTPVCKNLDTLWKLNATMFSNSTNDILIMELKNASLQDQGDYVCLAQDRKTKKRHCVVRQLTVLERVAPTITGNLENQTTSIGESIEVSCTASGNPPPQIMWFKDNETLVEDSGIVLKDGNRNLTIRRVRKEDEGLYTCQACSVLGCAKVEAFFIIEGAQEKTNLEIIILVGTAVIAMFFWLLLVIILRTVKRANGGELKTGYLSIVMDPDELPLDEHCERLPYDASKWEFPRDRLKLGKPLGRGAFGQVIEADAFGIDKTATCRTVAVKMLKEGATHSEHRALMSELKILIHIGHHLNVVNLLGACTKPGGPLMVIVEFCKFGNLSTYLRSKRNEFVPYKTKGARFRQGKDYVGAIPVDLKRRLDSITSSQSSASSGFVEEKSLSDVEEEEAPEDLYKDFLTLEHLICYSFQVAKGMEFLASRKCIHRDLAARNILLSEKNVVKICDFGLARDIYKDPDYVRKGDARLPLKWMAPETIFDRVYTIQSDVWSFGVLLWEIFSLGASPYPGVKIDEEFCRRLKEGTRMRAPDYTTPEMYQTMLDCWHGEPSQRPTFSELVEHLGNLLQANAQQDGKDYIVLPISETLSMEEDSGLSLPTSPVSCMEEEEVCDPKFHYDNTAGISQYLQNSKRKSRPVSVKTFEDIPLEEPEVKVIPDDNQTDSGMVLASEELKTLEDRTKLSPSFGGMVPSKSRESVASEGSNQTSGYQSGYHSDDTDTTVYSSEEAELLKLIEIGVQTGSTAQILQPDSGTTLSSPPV
Description: as §7, §8

[7] = target: T3, EGFR (Homo sapiens, UniProt P00533); test: LanthaScreen TR-FRET kinase assay, EGFR; format: biochemical; set-up: purchased Invitrogen; settings: compounds at 25 micromolar; FIG. 1
T3 sequence (P00533 25-1210): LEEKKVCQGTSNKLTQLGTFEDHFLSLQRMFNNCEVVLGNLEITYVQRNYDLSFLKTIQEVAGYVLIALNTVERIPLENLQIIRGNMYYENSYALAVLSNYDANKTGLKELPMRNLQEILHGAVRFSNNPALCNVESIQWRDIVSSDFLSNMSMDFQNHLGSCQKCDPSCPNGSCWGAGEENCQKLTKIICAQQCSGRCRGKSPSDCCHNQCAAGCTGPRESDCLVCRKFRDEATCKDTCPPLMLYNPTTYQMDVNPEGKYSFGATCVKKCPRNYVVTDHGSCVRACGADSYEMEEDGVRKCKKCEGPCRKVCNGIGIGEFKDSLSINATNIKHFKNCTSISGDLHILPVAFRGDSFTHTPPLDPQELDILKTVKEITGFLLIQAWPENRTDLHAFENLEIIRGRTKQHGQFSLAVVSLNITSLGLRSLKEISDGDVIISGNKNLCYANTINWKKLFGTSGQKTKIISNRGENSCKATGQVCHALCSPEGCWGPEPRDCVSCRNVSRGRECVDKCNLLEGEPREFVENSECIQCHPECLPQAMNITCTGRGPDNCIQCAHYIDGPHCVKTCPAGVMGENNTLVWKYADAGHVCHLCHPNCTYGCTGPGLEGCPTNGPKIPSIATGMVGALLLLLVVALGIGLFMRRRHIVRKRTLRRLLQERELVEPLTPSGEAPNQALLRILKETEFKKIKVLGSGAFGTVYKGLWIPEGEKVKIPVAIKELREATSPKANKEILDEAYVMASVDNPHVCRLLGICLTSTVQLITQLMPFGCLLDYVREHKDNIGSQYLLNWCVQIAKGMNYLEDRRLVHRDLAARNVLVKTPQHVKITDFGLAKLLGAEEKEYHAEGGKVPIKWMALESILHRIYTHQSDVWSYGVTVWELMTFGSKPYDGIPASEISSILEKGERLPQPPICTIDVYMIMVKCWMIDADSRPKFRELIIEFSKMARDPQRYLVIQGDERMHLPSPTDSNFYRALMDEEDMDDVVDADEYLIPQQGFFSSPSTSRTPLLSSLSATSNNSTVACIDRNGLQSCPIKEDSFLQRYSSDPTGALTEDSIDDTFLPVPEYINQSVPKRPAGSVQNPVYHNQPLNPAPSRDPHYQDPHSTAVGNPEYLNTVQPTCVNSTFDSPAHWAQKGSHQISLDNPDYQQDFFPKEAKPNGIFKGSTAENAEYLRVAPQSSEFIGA

[8] = target: T3, EGFR; settings: known inhibitors; cited from earlier work
[9] = tested on: HT29 cells; settings: up to 100 nM; un-starved HT29 cells; data not shown
[10] = compounds at 25 micromolar, FIG. 2

Compound: 6H-Indeno[1,2-e]tetrazolo[1,5-b][1,2,4]triazin-6-one & 10H-Indeno[2,1-e]tetrazolo[1,5-b][1,2,4]triazin-10-one [dual PDK1/AKT/Flt1 pathway inhibitor]
- effect on early P-DMR event in the EGF response in A431 ([1]; EGF at 32 nM, early P-DMR): almost completely attenuated
- effect on early P-DMR event of the EGF response in HT29 ([2]; EGF at 2 nM, early P-DMR): almost completely attenuated
- effect on late P-DMR event of the EGF response in HT29 ([2]; EGF at 2 nM, late P-DMR): almost completely attenuated

Compound: COc1cc2ncnc(Nc3cccc(Cl)c3)c2cc1OC [AG1478]
- impact on DMR signal of MTX in HT29 ([3]; MTX at 16 micromolar): partial inhibition
- impact on DMR signal of NT in HT29 ([4]; NT at 2 nM): partial inhibition

Compound: CCCCCCc1csc2cc(C(=O)O)sc12 [Compound H, 6-hexyl-thieno[3,2-b]thiophene-2-carboxylic acid]
- inhibition of FRET signal of VEGFR1 tyrosine kinase [5, 10]: less potent than the others
- inhibition of FRET signal of VEGFR2 tyrosine kinase [6]: less potent than the others
- inhibition of FRET signal of EGFR tyrosine kinase [7]: less potent than the others

Compound: CCCCCCc1csc2c(CCCCCC)c(C(=O)O)sc12 [Compound J, 3,6-Dihexyl-thieno[3,2-b]thiophene-2-carboxylic acid]
- inhibition of FRET signal of VEGFR1 tyrosine kinase [5, 10]: less potent than the others
- inhibition of FRET signal of VEGFR2 tyrosine kinase [6]: less potent than the others
- inhibition of FRET signal of EGFR tyrosine kinase [7]: less potent than the others

Compound: Cc1csc2c1sc1cc(C(=O)O)sc12 [Compound K, 5-methyldithieno[3,2-b:2′3′-d] thiophene-2-carboxyl acid]
- inhibition of FRET signal of VEGFR1 tyrosine kinase [5, 10]: less potent than the others
- inhibition of FRET signal of VEGFR2 tyrosine kinase [6]: less potent than the others
- inhibition of FRET signal of EGFR tyrosine kinase [7]: less potent than the others

Compound: C[C@@H](N)[C@H]1CC[C@H](C(=O)Nc2ccncc2)CC1 [Compound Y-27632, reference compound]
- attenuation of FRET signal for VEGFR2 tyrosine kinase ([6]; concentration not given): significantly attenuated

Compound: c1ccc(-c2cnc(Nc3ccc(OCCN4CCCC4)cc3)s2)cc1 [Flt3 inhibitor III, (5-Phenyl-thiazol-2-yl)-(4-(2-pyrrolidin-1-yl-ethoxy)-phenyl)-amine]
- impact on DMR signal of EGF in A431 ([1]; EGF at 32 nM): little impact
- impact on DMR signal of EGF in HT29 ([2]; EGF at 2 nM): little impact
- impact on DMR signal of MTX in HT29 ([3]; MTX at 16 micromolar): little impact
- impact on DMR signal of NT in HT29 ([4]; NT at 2 nM): little impact

Compound: CCCCCCCCCCc1csc2c(CCCCCC)c(C(=O)O)sc12 [I]
- modulation of EGF response in A431, N-DMR ([1]; EGF at 32 nM, N-DMR ~30 min after EGF stimulation): −65%
- modulation of EGF response in A431, early P-DMR ([1]; EGF at 32 nM, early P-DMR ~5 min after EGF stimulation): −60%
- modulation index score, EGF in A431 N-DMR ([1]; score = modulation percentage/10, 2nd coordinate): −6.5
- modulation of EGF response in HT29, early P-DMR ([2]; EGF at 2 nM, early P-DMR ~5 min after EGF stimulation): −70%
- modulation of EGF response in HT29, late P-DMR ([2]; EGF at 2 nM, late P-DMR ~50 min after EGF stimulation): −100%
- modulation index score, EGF in HT29 early P-DMR ([2]; score = modulation percentage/10, 3rd coordinate): −7
- modulation index score, EGF in HT29 late P-DMR ([2]; score = modulation percentage/10, 4th coordinate): −10
- modulation of MTX response in HT29, P-DMR ([3]; MTX at 16 micromolar, P-DMR 50 min after MTX stimulation): −60%
- modulation index score, MTX in HT29 P-DMR ([3]; score = modulation percentage/10, 5th coordinate): −6
- modulation of NT response in HT29, P-DMR ([4]; NT at 2 nM, P-DMR 50 min after NT stimulation): −106%
- modulation index score, NT in HT29 P-DMR ([4]; score = modulation percentage/10, 6th coordinate): −10.6

Compound: O=C(O)c1cc(N(Cc2ccccc2O)Cc2cc(O)ccc2O)ccc1O [Lavendustin A]
- strength as EGFR inhibitor [8]: weak EGFR inhibitor

Compound: CCOC(=O)c1c(C)[nH]c(/C=C2\C(=O)Nc3ccccc32)c1C [VEGFR2 tyrosine kinase inhibitor I, (Z)-3-[(2,4-Dimethyl-3-(ethoxycarbonyl)pyrrol-5-yl)methylidenyl]indolin-2-one]
- impact on DMR signal of EGF in A431 ([1]; EGF at 32 nM): little impact
- impact on DMR signal of EGF in HT29 ([2]; EGF at 2 nM): little impact
- impact on DMR signal of MTX in HT29 ([3]; MTX at 16 micromolar): little impact
- impact on DMR signal of NT in HT29 ([4]; NT at 2 nM): little impact

Compound: O=C1Nc2ccc(Br)cc2/C1=C/c1cc2c([nH]1)CCCC2 [VEGFR2 tyrosine kinase inhibitor II, (Z)-5-Bromo-3-(4,5,6,7-tetrahydro-1H-indol-2-ylmethylene)-1,3-dihydroindol-2-one]
- impact on DMR signal of EGF in A431 ([1]; EGF at 32 nM): little impact
- impact on DMR signal of EGF in HT29 ([2]; EGF at 2 nM): little impact
- impact on DMR signal of MTX in HT29 ([3]; MTX at 16 micromolar): little impact
- impact on DMR signal of NT in HT29 ([4]; NT at 2 nM): little impact

Compound: CN[C@@H]1C[C@H]2O[C@@](C)([C@@H]1OC)n1c3ccccc3c3c4c(c5c6ccccc6n2c5c31)C(=O)NC4 [staurosporine, reference compound]
- inhibition of FRET signal of VEGFR1 tyrosine kinase ([5]; at 10 micromolar): completely inhibited

Compound: VEGF
- DMR signal triggered [9]: very small DMR signal
